Laboratory results: patent publication US20190350236A1, “METHOD OF PROCESSING SHELLFISH AND RESULTING COMPOSITIONS” (SANFORD LIMITED, priority 2016, published 2019)

Columns and labels:
[1] = DPPH scavenging method (antioxidant activity); settings: reference value used for FIG. 8
Experimental: The antioxidant activity of each of the samples was tested using the DPPH scavenging method (i.e. by using the stable free radical 2,2-Diphenyl-1-(2,4,6-trinitrophenyl) hydrazyl as a substrate). Whilst the DPPH method is not a direct anti-inflammatory assay, antioxidant activity has been an indication of anti-inflammatory activity in many study cases. The DPPH solution was prepared […] and kept in the freezer in the dark before use. The positive control was ascorbic acid prepared as 0.1 mg/ml in a buffer containing citric acid and NaHPO4 (pH 5). Equal amounts of sample solution and DPPH solution were added together, and the assay tube or plate was incubated for 30 minutes in the dark, followed by absorbance measurement at 517 nm on a spectrophotometer. In the blank control experiment of each sample, DPPH was replaced with ethanol. In the DPPH blank control experiment, the sample was replaced with the media (water or solvent) the sample was prepared in.
The scavenging activity (DPPH inhibition %) is calculated by percentage of the absorbance from the sample versus the DPPH only:
All samples were tested at a concentration of 10 mg/ml.

activated neutrophils = assay: Inhibition of superoxide production by PMA-activated neutrophils (WST-1 reduction), anti-inflammatory activity; format: cell-based; settings: Rattus norvegicus, Neutrophil
Experimental: The relative anti-inflammatory properties of the test samples were determined by establishing their abilities to inhibit the activation of neutrophils as measured by the production of superoxide. The efficacy of the test samples was referenced against Aspirin, as well as an un-supplemented control group.
Samples 1, 2 and 3 (actually numbered samples 3, 4 and 5 in the above table) were produced from the same batch of mussels. Each of the above test samples was extracted with ethanol at a ratio of 1:10 (w:v) and the residues were then extracted with distilled water at the same ratio, so that the activity of both the lipid rich or hydrophobic fraction and the hydrophilic or aqueous fraction of each of the test samples could be tested. The experimental procedure for determining the effects of the test samples on inflammation was based on the methods described in Tan, A S and Berridge, MV (2000). Superoxide produced by activated neutrophils efficiently reduces the tetrazolium salt, WST-1 to produce a soluble formazan: a simple colorimetric assay for measuring respiratory burst activation and for screening of anti-inflammatory agents. J Immunol. Meth. 238: 59-68. Neutrophils were harvested from rat whole blood and activated with phorbol 12-myristate 13-acetate (PMA). The activated neutrophils were then incubated and cultured in the presence of each of the test samples and the controls. The reduction of the WST-1 dye was measured to determine the products of superoxide. The control group was set at 100% activity (0% inhibition) and the inhibition of all samples were compared to this reference.
The ethanol and water extracts (lipid rich and hydrophilic fractions) from each of the test samples were tested at 400 μg/ml for their anti-inflammatory activity based on the inhibition of superoxide by activated neutrophils. The yields of each extraction were used along with the activity of each to obtain an estimate for the total activity within each of the test samples for the two fractions.

Row | Compound | IC50 of Vitamin E equivalent [1] [µg/mL] | IC50 (activated neutrophils; reference value used for FIG. 7, read-out: IC50 of aspirin equivalent) [µg/mL] | inhibition at 100 µg/mL (activated neutrophils; reference, 100 μg/ml) [%] | inhibition at 200 µg/mL (activated neutrophils; reference, 200 μg/ml) [%] | inhibition at 400 µg/mL (activated neutrophils; reference, 400 μg/ml) [%]
1 | Vitamin E | 9.26 |  |  |  | 
2 | CC(=O)Oc1ccccc1C(=O)O [Aspirin] |  | 400 | 16.5 | 48.1 | 50.2
